# According to PubChem BioAssay (NCI):
#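 Assay format: 96-well plates, 48-hour exposure. Definition used: TGI = concentration required for complete inhibition of growth.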
# Legend:
# Experiment in all cases: NCI tumour cell line growth inhibition, 48 h
# [1] = system: XF 498 CNS
# [2] = system: DMS 273 small cell lung
# [3] = system: HOP-18 NSCLC
# [4] = system: SNB-78 CNS
# [5] = system: KM20L2 colon
# [6] = system: LXFL 529 NSCLC
# [7] = system: DMS 114 small cell lung
# [8] = system: SN12K1 renal
# [9] = system: P388 leukemia
# [10] = system: M19-MEL melanoma
# [11] = system: P388/ADR leukemia
Structure (SMILES),TGI [1],TGI [2],TGI [3],TGI [4],TGI [5],TGI [6],TGI [7],TGI [8],TGI [9],TGI [10],TGI [11]
O=C1C=CC(=C(c2ccc(O)cc2)c2ccc(O)cc2)C=C1,24.4 µM,19.9 µM,30.3 µM,17.4 µM,30.7 µM,10.8 µM,7.54 µM,–,–,–,–
O=C1C=C2SC3C[C@@]24CC1[N+]1=c2c4c(c(O)c4c2=C(C=N4)CC1)N3,3.34 µM,4.12 µM,18.9 µM,5.88 µM,3.81 µM,–,2.85 µM,3.76 µM,4.15 µM,3.44 µM,23.1 µM
C=CCc1cc(-c2cc(CC=C)c(O)c(CN(CC)CC)c2)cc(CN(CC)CC)c1O,–,82.5 µM,> 100 µM,> 100 µM,40 µM,> 100 µM,> 100 µM,–,–,43.8 µM,–
O=S(OC12CC3CC(CC(C3)C1)C2)c1cc(Cl)cc(Cl)c1OCc1ccccc1 (centres undefined),> 100 µM,–,–,> 100 µM,–,> 100 µM,> 100 µM,–,–,> 100 µM,–
